Experimental data reported in US20120122870A1, “Treatment Of Ischemia-Reperfusion Injury” (MUSC FOUNDATION FOR RESEARCH DEVELOPMENT, priority 2009, published 2012).

System: endogenous SK activity in MDA-MB-231 cells
Assay: Cellular S1P production (endogenous SK activity) in MDA-MB-231 cells
Type: cell-based
Details: Homo sapiens, MDA-MB-231, MDA-MB-231 cells incubated with 20 μg/mL of compound; percentage of S1P production inhibited
Procedure: Human SK was incubated with 6 μg/mL of the indicated compounds, and then assayed for activity as described above. Values in the column labeled “Recombinant SK (% inhibition)” represent the percentage of SK activity that was inhibited. MDA-MB-231 cells were incubated with 20 μg/mL of the indicated compounds and then assayed for endogenous SK activity as indicated above. Values in the column labeled “Cellular S1P (% inhibition)” represent the percentage of S1P production that was inhibited. Additionally, MDA-MB-231 cells were treated with varying concentration of certain compounds and the amount of S1P produced by the cells was determined. Values in the column labeled “Cellular S1P IC50 (μM)” represent the concentration of compound required to inhibit the production of S1P by 50%. ND=not determined.

**Q.** With `O=C(NCCc1ccc(O)c(O)c1)C12CC3CC(C1)CC(c1ccc(Cl)cc1)(C3)C2` [A44, 3-(4-Chloro-phenyl)-adamantane-1-carboxylic acid [2-(3,4-dihydroxy-phenyl)-ethyl]-amide] as the compound, how does the inhibition at 20 µg/mL read?
**A.** Its inhibition at 20 µg/mL is 88%.

**Q.** `CC(C)NCC12CC3CC(C1)CC(c1ccc(Cl)cc1)(C3)C2` [A75, [3-(4-Chloro-phenyl)-adamantan-1-ylmethyl]-isopropyl-amine] was tested. Which inhibition at 20 µg/mL did it give?
**A.** Its inhibition at 20 µg/mL is 41%.

**Q.** `O=C(Nc1ccc(Cl)c(C(F)(F)F)c1)Nc1nc(-c2ccc(Cl)cc2)cs1` [B1, 1-[4-(4-Chloro-phenyl)-thiazol-2-yl]-3-(4-chloro-3-trifluoromethyl-phenyl)-urea] was tested. Which inhibition at 20 µg/mL did it give?
**A.** The inhibition at 20 µg/mL was 32%.

**Q.** For `CCCCCCCCCCCCCC(=O)Nc1nc(-c2ccc(Cl)cc2)cs1` [B2, Tetradecanoic acid [4-(4-chloro-phenyl)-thiazol-2-yl]-amide], which inhibition at 20 µg/mL is on record?
**A.** The inhibition at 20 µg/mL was 43%.

**Q.** With `C=CCCCCCCCCC(=O)Nc1nc(-c2ccc(Cl)cc2)cs1` [B4, Undec-10-enoic acid [4-(4-chloro-phenyl)-thiazol-2-yl]-amide] as the compound, how does the inhibition at 20 µg/mL read?
**A.** Its inhibition at 20 µg/mL is 39%.

**Q.** `O=C(C=Cc1ccc([N+](=O)[O-])cc1)Nc1nc(-c2ccc(Cl)cc2)cs1` [B5, N-[4-(4-Chloro-phenyl)-thiazol-2-yl]-3-(4-nitro-phenyl)-acrylamide] was tested. Which inhibition at 20 µg/mL did it give?
**A.** Its inhibition at 20 µg/mL is 25%.

**Q.** For `CCCCCCCCC=CCCCCCCCC(=O)Nc1nc(-c2ccc(Cl)cc2)cs1` [B6, Octadec-9-enoic acid [4-(4-chloro-phenyl)-thiazol-2-yl]-amide], which inhibition at 20 µg/mL is on record?
**A.** The inhibition at 20 µg/mL was 21%.

**Q.** For `O=C(C=Cc1ccccc1)Nc1nc(-c2ccc(Cl)cc2)cs1` [B7, N-[4-(4-Chloro-phenyl)-thiazol-2-yl]-3-phenyl-acrylamide], which inhibition at 20 µg/mL is on record?
**A.** Its inhibition at 20 µg/mL is 21%.

**Q.** How did the inhibition at 20 µg/mL turn out when `CCCC(=O)Oc1ccc(C=CC(=O)Nc2nc(-c3ccc(Cl)cc3)cs2)cc1OC` [B8, Butyric acid 4-{2-[4-(4-chloro-phenyl)-thiazol-2-ylcarbamoyl]-vinyl}-2-methoxy-phenyl ester] was run?
**A.** The inhibition at 20 µg/mL was 80%.

**Q.** `COc1cc(C=CC(=O)Nc2nc(-c3cccc(Cl)c3)cs2)ccc1O` [B9, N-[4-(3-Chloro-phenyl)-thiazol-2-yl]-3-(4-hydroxy-3-methoxy-phenyl)-acrylamide] was tested. Which inhibition at 20 µg/mL did it give?
**A.** The inhibition at 20 µg/mL was 32%.

**Q.** With `COc1cc(C=CC(=O)Nc2nc(-c3ccc(Cl)cc3)cs2)ccc1OC(C)=O` [B10, Acetic acid 4-{2-[4-(4-chloro-phenyl)-thiazol-2-ylcarbamoyl]-vinyl}-2-methoxy-phenyl ester] as the compound, how does the inhibition at 20 µg/mL read?
**A.** The inhibition at 20 µg/mL was 48%.

**Q.** How did the inhibition at 20 µg/mL turn out when `CCCC(=O)Oc1ccc(C=CC(=O)Nc2nc(-c3ccc(Cl)cc3)cs2)cc1OC(=O)CCC` [B11, Butyric acid 2-butyryloxy-5-{2-[4-(4-chloro-phenyl)-thiazol-2-ylcarbamoyl]-vinyl}-phenyl ester] was run?
**A.** The inhibition at 20 µg/mL was 55%.

**Q.** Which inhibition at 20 µg/mL does the source give for `CC(=O)Oc1ccc(C=CC(=O)Nc2nc(-c3ccc(Cl)cc3)cs2)cc1` [B12, Acetic acid 4-{2-[4-(4-chloro-phenyl)-thiazol-2-ylcarbamoyl]-vinyl}-phenyl ester] here?
**A.** Its inhibition at 20 µg/mL is 13%.

**Q.** Which inhibition at 20 µg/mL does the source give for `CCCC(=O)Oc1ccccc1C=CC(=O)Nc1nc(-c2ccc(Cl)cc2)cs1` [B13, Butyric acid 2-{2-[4-(4-chloro-phenyl)-thiazol-2-ylcarbamoyl]-vinyl}-phenyl ester] here?
**A.** The inhibition at 20 µg/mL was 0%.

**Q.** How did the inhibition at 20 µg/mL turn out when `CCCC(=O)Oc1cccc(C=CC(=O)Nc2nc(-c3ccc(Cl)cc3)cs2)c1` [B14, Butyric acid 3-{2-[4-(4-chloro-phenyl)-thiazol-2-ylcarbamoyl]-vinyl}-phenyl ester] was run?
**A.** The inhibition at 20 µg/mL was 39%.

**Q.** With `CCCC(=O)Oc1ccc(C=CC(=O)Nc2nc(-c3ccc(Cl)cc3)cs2)cc1` [B15, Butyric acid 4-{2-[4-(4-chloro-phenyl)-thiazol-2-ylcarbamoyl]-vinyl}-phenyl ester] as the compound, how does the inhibition at 20 µg/mL read?
**A.** The inhibition at 20 µg/mL was 23%.

**Q.** How did the inhibition at 20 µg/mL turn out when `CCCC(=O)Oc1ccc(CC(=O)Nc2nc(-c3ccc(Cl)cc3)cs2)cc1OC` [B16, Butyric acid 4-{[4-(4-chloro-phenyl)-thiazol-2-ylcarbamoyl]-methyl}-2-methoxy-phenyl ester] was run?
**A.** Its inhibition at 20 µg/mL is 83%.

**Q.** Which inhibition at 20 µg/mL does the source give for `CCCC(=O)Oc1ccc(CC(=O)Nc2nc(-c3ccc(Cl)cc3)cs2)cc1OC(=O)CCC` [B17, Butyric acid 2-butyryloxy-5-{[4-(4-chloro-phenyl)-thiazol-2-ylcarbamoyl]-methyl}-phenyl ester] here?
**A.** Its inhibition at 20 µg/mL is 57%.

**Q.** Which inhibition at 20 µg/mL does the source give for `CCCC(=O)Oc1cc(C=CC(=O)Nc2nc(-c3ccc(Cl)cc3)cs2)ccc1OC` [B18, Butyric acid 5-{2-[4-(4-chloro-phenyl)-thiazol-2-ylcarbamoyl]-vinyl}-2-methoxy-phenyl ester] here?
**A.** The inhibition at 20 µg/mL was 65%.

**Q.** Which inhibition at 20 µg/mL does the source give for `CCCC(=O)Oc1ccc(C=CC(=O)Nc2nc(-c3ccc(C)cc3)cs2)cc1OC` [B19, Butyric acid 2-methoxy-4-[2-(4-p-tolyl-thiazol-2-ylcarbamoyl)-vinyl]-phenyl ester] here?
**A.** The inhibition at 20 µg/mL was 53%.

**Q.** Which inhibition at 20 µg/mL does the source give for `CCCC(=O)Oc1ccc(C=CC(=O)Nc2nc(-c3ccc(Br)cc3)cs2)cc1OC` [B20, Butyric acid 4-{2-[4-(4-bromo-phenyl)-thiazol-2-ylcarbamoyl]-vinyl}-2-methoxy-phenyl ester] here?
**A.** Its inhibition at 20 µg/mL is 62%.

**Q.** For `O=C(C=Cc1ccc2c(c1)OCO2)Nc1nc(-c2ccc(Cl)cc2)cs1` [B21, 3-Benzo[1,3]dioxol-5-yl-N-[4-(4-chloro-phenyl)-thiazol-2-yl]-acrylamide], which inhibition at 20 µg/mL is on record?
**A.** The inhibition at 20 µg/mL was 41%.

**Q.** Which inhibition at 20 µg/mL does the source give for `O=C(Cc1ccc2c(c1)OCO2)Nc1nc(-c2ccc(Cl)cc2)cs1` [B22, 2-Benzo[1,3]dioxol-5-yl-N-[4-(4-chloro-phenyl)-thiazol-2-yl]-acetamide] here?
**A.** Its inhibition at 20 µg/mL is 33%.

**Q.** Which inhibition at 20 µg/mL does the source give for `COc1ccc(CCC(=O)Nc2nc(-c3ccc(Cl)cc3)cs2)cc1OC` [B23, N-[4-(4-Chloro-phenyl)-thiazol-2-yl]-3-(3,4-dimethoxy-phenyl)-propionamide] here?
**A.** Its inhibition at 20 µg/mL is 14%.

**Q.** How did the inhibition at 20 µg/mL turn out when `CCCC(=O)Oc1ccc(C(=O)Nc2nc(-c3ccc(Cl)cc3)cs2)cc1OC` [B24, Butyric acid 4-[4-(4-chloro-phenyl)-thiazol-2-ylcarbamoyl]-2-methoxy-phenyl ester] was run?
**A.** Its inhibition at 20 µg/mL is 69%.

**Q.** With `CCCC(=O)Oc1ccc(C(=O)Nc2nc(-c3ccc(Cl)cc3)cs2)cc1OC(=O)CCC` [B25, Butyric acid 2-butyryloxy-4-[4-(4-chloro-phenyl)-thiazol-2-ylcarbamoyl]-phenyl ester] as the compound, how does the inhibition at 20 µg/mL read?
**A.** The inhibition at 20 µg/mL was 79%.

**Q.** How did the inhibition at 20 µg/mL turn out when `CCCC(=O)Oc1ccc(CCC(=O)Nc2nc(-c3ccc(Cl)cc3)cs2)cc1OC(=O)CCC` [B26, Butyric acid 2-butyryloxy-4-{2-[4-(4-chloro-phenyl)-thiazol-2-ylcarbamoyl]-ethyl}-phenyl ester] was run?
**A.** The inhibition at 20 µg/mL was 79%.

**Q.** With `CCCC(=O)Oc1cc(C(=O)Nc2nc(-c3ccc(Cl)cc3)cs2)cc(OC(=O)CCC)c1OC(=O)CCC` [B27, Butyric acid 2,6-bis-butyryloxy-4-[4-(4-chloro-phenyl)-thiazol-2-ylcarbamoyl]-phenyl ester] as the compound, how does the inhibition at 20 µg/mL read?
**A.** The inhibition at 20 µg/mL was 68%.

**Q.** For `CCCC(=O)Oc1ccc(C=CC(=O)Nc2nc(-c3ccc(F)cc3)cs2)cc1OC` [B28, Butyric acid 4-{2-[4-(4-fluoro-phenyl)-thiazol-2-ylcarbamoyl]-vinyl}-2-methoxy-phenyl ester], which inhibition at 20 µg/mL is on record?
**A.** The inhibition at 20 µg/mL was 65%.

**Q.** `O=C(NCc1ccncc1)c1nc(-c2ccc(Cl)cc2)cs1` [B34, 4-(4-Chloro-phenyl)thiazole-2-carboxylic acid (pyridin-4-ylmethyl)amide] was tested. Which inhibition at 20 µg/mL did it give?
**A.** Its inhibition at 20 µg/mL is 28%.

**Q.** With `CN(C)c1ccc(CNC(=O)c2nc(-c3ccc(Cl)cc3)cs2)cc1` [B35, 4-(4-Chloro-phenyl)-thiazole-2-carboxylic acid 4-dimethylamino-benzylamide] as the compound, how does the inhibition at 20 µg/mL read?
**A.** The inhibition at 20 µg/mL was 17%.

**Q.** How did the inhibition at 20 µg/mL turn out when `O=C(NCc1cc(F)cc(F)c1)c1nc(-c2ccc(Cl)cc2)cs1` [B36, 4-(4-Chloro-phenyl)-thiazole-2-carboxylic acid 3,5-difluoro-benzylamide] was run?
**A.** Its inhibition at 20 µg/mL is 0%.

**Q.** Which inhibition at 20 µg/mL does the source give for `O=C(NCc1ccc(Cl)c(C(F)(F)F)c1)c1nc(-c2ccc(Cl)cc2)cs1` [B37, 4-(4-Chloro-phenyl)-thiazole-2-carboxylic acid 4-chloro-3-trifluoromethyl-benzylamide] here?
**A.** Its inhibition at 20 µg/mL is 0%.

**Q.** Which inhibition at 20 µg/mL does the source give for `O=C(NCc1ccc(F)cc1Cl)c1nc(-c2ccc(Cl)cc2)cs1` [B38, 4-(4-Chloro-phenyl)-thiazole-2-carboxylic acid 2-chloro-4-fluoro-benzylamide] here?
**A.** Its inhibition at 20 µg/mL is 0%.

**Q.** For `O=C(NCc1ccc(F)c(Cl)c1)c1nc(-c2ccc(Cl)cc2)cs1` [B39, 4-(4-Chloro-phenyl)-thiazole-2-carboxylic acid 3-chloro-4-fluoro-benzylamide], which inhibition at 20 µg/mL is on record?
**A.** Its inhibition at 20 µg/mL is 0%.

**Q.** For `O=C(NCc1ccc(F)c(F)c1)c1nc(-c2ccc(Cl)cc2)cs1` [B40, 4-(4-Chloro-phenyl)-thiazole-2-carboxylic acid 3,4-difluoro-benzylamide], which inhibition at 20 µg/mL is on record?
**A.** The inhibition at 20 µg/mL was 0%.

**Q.** With `COc1ccc(CCNC(=O)c2nc(-c3ccc(Cl)cc3)cs2)cc1Br` [B41, 4-(4-Chloro-phenyl)-thiazole-2-carboxylic acid [2-(3-bromo-4-methoxy-phenyl)-ethyl]-amide] as the compound, how does the inhibition at 20 µg/mL read?
**A.** The inhibition at 20 µg/mL was 0%.

**Q.** With `O=C(NCc1cc(F)c(F)c(F)c1)c1nc(-c2ccc(Cl)cc2)cs1` [B42, 4-(4-Chloro-phenyl)-thiazole-2-carboxylic acid 3,4,5-trifluoro-benzylamide] as the compound, how does the inhibition at 20 µg/mL read?
**A.** Its inhibition at 20 µg/mL is 0%.

**Q.** With `O=C(NCc1cccc(OC(F)(F)F)c1)c1nc(-c2ccc(Cl)cc2)cs1` [B43, 4-(4-Chloro-phenyl)-thiazole-2-carboxylic acid 3-trifluoromethoxy-benzylamide] as the compound, how does the inhibition at 20 µg/mL read?
**A.** The inhibition at 20 µg/mL was 0%.

**Q.** Which inhibition at 20 µg/mL does the source give for `O=C(NCCc1cccc(Oc2ccccc2)c1)c1nc(-c2ccc(Cl)cc2)cs1` [B44, 4-(4-Chloro-phenyl)-thiazole-2-carboxylic acid [2-(3-phenoxy-phenyl)-ethyl]-amide] here?
**A.** Its inhibition at 20 µg/mL is 0%.

Same assay, conditions: Homo sapiens; MDA-MB-231 cells, varying concentrations; concentration inhibiting S1P production by 50%

**Q.** `O=C(NCCc1ccc(O)c(O)c1)C12CC3CC(C1)CC(c1ccc(Cl)cc1)(C3)C2` [A44, 3-(4-Chloro-phenyl)-adamantane-1-carboxylic acid [2-(3,4-dihydroxy-phenyl)-ethyl]-amide] was tested. Which IC50 did it give?
**A.** Its IC50 is 35 µM.

**Q.** `CCCC(=O)Oc1ccc(C=CC(=O)Nc2nc(-c3ccc(Cl)cc3)cs2)cc1OC` [B8, Butyric acid 4-{2-[4-(4-chloro-phenyl)-thiazol-2-ylcarbamoyl]-vinyl}-2-methoxy-phenyl ester] was tested. Which IC50 did it give?
**A.** Its IC50 is 34 µM.
